{"source": "BindingDB's records for doi:10.1016/j.bmc.2013.10.054", "about": "(Punjabi University, 2014)", "molecular_target": "T1, P2X purinoceptor 7 (Homo sapiens, UniProt Q99572)", "T1 sequence (Q99572 whole entry)": "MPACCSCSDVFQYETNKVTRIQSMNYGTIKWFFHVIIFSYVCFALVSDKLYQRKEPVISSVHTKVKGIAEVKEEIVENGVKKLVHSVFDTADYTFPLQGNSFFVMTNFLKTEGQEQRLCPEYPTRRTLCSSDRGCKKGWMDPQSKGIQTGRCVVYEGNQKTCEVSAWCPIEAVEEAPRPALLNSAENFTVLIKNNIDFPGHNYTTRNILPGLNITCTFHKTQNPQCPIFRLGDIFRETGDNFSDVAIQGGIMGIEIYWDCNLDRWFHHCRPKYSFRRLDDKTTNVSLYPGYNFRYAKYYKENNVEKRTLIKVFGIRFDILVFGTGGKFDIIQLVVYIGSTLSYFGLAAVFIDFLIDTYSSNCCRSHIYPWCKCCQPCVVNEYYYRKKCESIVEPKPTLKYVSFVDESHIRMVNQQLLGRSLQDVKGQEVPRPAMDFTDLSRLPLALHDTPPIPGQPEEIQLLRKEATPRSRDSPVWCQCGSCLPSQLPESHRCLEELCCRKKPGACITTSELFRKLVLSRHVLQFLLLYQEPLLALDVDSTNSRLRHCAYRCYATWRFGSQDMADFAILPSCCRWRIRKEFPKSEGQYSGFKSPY", "assay": "Antagonist activity at P2X7 receptor (unknown origin)", "note": "pIC50: −log10 of the molar value."}
{"smiles": "O=C(Cn1cc(O)n(-c2ccccc2)c1=O)NCc1ccc(F)cc1Cl", "values": [{"measurement": "pIC50", "value": "> 6.00"}]}
